One experiment addresses human eosinophils. The experiment is described as follows: Binding inhibitory test of chemokine ([125I]-eotaxin) to human eosinophils. Particulars: 50 pmol/L [125I]-eotaxin, 2x10^5 eosinophils, 25°C, 1 hr; read-out: IC50 (concentration of test compound necessary for decreasing binding of [125I]-eotaxin to human eosinophils by 50%). Here is the method: Binding Inhibitory Test of Chemokine to Human Eosinophils
Human eosinophils were separated by the CD16 negative selection method from anticoagulation-treated peripheral blood of healthy subject (e.g., J. Immunol. Methods, vol. 145, pages 105-110, 1991). The separated eosinophils (2×10^5 cells), 50 pmol/L[^125I]-eotaxin (2000 Ci/mmoL, manufactured by Amersham Pharmacia Biotech) and a test compounds were mixed in 0.1 mL of binding buffer (50 mmol/L HEPES, 1 mmol/L CaCl2, 5 mmol/L MgCl2, 0.5% bovine serum albumin (BSA), 0.1% sodium azide, pH 7.4), and the mixture was incubated in a multiscreen plate (manufactured by MILLIPORE) at 25° C. for 1 hr. After incubation, the reaction mixture in the multiscreen plate was filtered by vacuum manifold, and washed with 0.6 mL of a cold washing buffer (50 mmol/L HEPES, 1 mmol/L CaCl2, 5 mmol/L MgCl2, 0.5 mol/L NaCl, 0.1% sodium azide, pH 7.4), and the radioactivity maintained on the filter was measured. […] The IC50 values (concentration of test compound necessary for decreasing binding of [^125I]-eotaxin to human eosinophils by 50%) of some of the compounds of the present invention were as follows.

Another experiment addresses T1, CCR3 (Homo sapiens, UniProt P51677).
T1 construct: Eosinophils separated from peripheral blood of healthy subject; endogenous in cells; host or cells: eosinophils separated from peripheral blood of healthy subject
T1 sequence (P51677 1-355): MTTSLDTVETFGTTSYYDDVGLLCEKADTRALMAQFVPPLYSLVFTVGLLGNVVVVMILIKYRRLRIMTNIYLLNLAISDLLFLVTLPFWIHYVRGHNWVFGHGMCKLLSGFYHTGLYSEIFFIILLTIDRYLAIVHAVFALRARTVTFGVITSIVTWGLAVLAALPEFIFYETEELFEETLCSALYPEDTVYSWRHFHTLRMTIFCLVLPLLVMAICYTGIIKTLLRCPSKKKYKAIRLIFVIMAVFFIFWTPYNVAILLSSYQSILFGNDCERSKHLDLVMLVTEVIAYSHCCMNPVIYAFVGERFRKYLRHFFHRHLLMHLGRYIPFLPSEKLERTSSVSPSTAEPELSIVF
The experiment in a line: Effect on intracellular calcium concentration in eosinophils upon CCL11 stimulation. The following applies: peripheral blood eosinophils of healthy subject, agonist CCL11 1.0 nmol/L, compound 3 min before stimulation, Fura-2 AM; read-out: IC50 (50% suppression of the increase in the intracellular calcium concentration). Type of experiment: cell-based. Here is the method:
Effect on Intracellular Calcium Concentration
The effect of the compound of the present invention on intracellular calcium mobilization in peripheral blood eosinophils of healthy subject upon CCL11 stimulation was examined by the following method.
Eosinophils separated from peripheral blood of healthy subject were suspended in 0.5% bovine serum albumin-containing phosphate buffered saline, and incubated at 37° C. for 45 min in the presence of 5 μmol/L of Fura-2 AM (manufactured by DOJINDO LABORATORIES).
After incubation, the cells were washed 3 times with a measurement buffer (10 mmol/L HEPES, and 0.5% bovine serum albumin-containing hanks' balanced salt solution) to remove Fura-2 AM that was not incorporated into the cells.
Finally, the cells were adjusted to 1×10^6 cells/mL with the measurement buffer and preserved in a dark place until measurement. The intracellular calcium was measured using FDSS3000 manufactured by Hamamatsu Photonics K.K. In other words, the cell suspension (0.1 mL) loaded with Fura-2 AM was placed in a 96 well plate for measurement, the fluorescence intensity to the excitation light at wavelengths 340 nm and 380 nm was measured by FDSS3000, the ratio of the fluorescence intensity to the excitation light at these two wavelengths was determined, based on which the intracellular calcium concentration was calculated. As the agonist, used was CCL11 (1.0 nmol/L), which is a CCR3 selective ligand, and the antagonistic activity was determined as 50% suppression rate (IC50 value) of the increase in the intracellular calcium concentration, when eosinophils were treated with various concentrations of the compound of the present invention at 3 min before agonist stimulation.
Background: Calcium assays in cells follow changes in intracellular calcium, usually with a dye or a luminescent sensor.

In experiment [1] the test system is mouse ovalbumin (OVA) induced allergic and biphasic ear edema. The experiment in a line: Antigen (OVA) induced allergic and biphasic ear edema model. In kind it is in vivo. The following applies: male BALB/c mice, oral once a day from 2 days before induction, 3 or 10 mg/kg tested. Here is the method: 3: Effect on Antigen Induced Allergic and Biphasic Ear Edema Model
The in vivo effect of the compound of the present invention was examined using a mouse ovalbumin (OVA) induced allergic and biphasic ear edema model. The model was prepared according to the method of Sugawara et al. (Allergy & Clinical Immunology International, Supplement No. 2, P 785, 2000). In other words, male BALB/c mice were immunized by intraperitoneal injection with 10 μg of OVA and 1 mg of aluminum hydroxide gel (Alum). At 14 days after immunization, OVA (5 μg) were subcutaneously injected to the both ears of the mouse, whereby ear edema was induced. The thickness of the ears was measured using a dial sickness gauge immediately before subcutaneous injection and 1 and 24 hrs after subcutaneous injection of OVA. The compound of the present invention was suspended in a vehicle, 0.5% hydroxypropylmethyl cellulose solution, and orally administered at 3 mg/kg or 10 mg/kg once a day using an orally gavage needle from 2 days before ear edema induction.

Where [2] appears, read: ear thickness 1 hr after OVA, read-out: Dose that showed a significant suppressive action vs vehicle, Immediate phase.
[3] abbreviates: ear thickness 24 hrs after OVA, read-out: Dose that showed a significant suppressive action vs vehicle, Late phase.

Structures can show the parent of a compound that is named as a salt. Where two headings read alike, the source gives them in different places.

Turning to `O=C(O)Cc1csc(SCC(=O)NC[C@H]2CN(Cc3ccc(Cl)c(Cl)c3)CCO2)n1` [Example 2, (2S)-[4-(carboxymethyl)thiazol-2-ylthio]-N-{[4-(3,4-dichlorobenzyl)morpholin-2-yl]methyl}acetamide], the IC50 at human eosinophils was determined as 2.4 nM; at CCR3, 1.8 nM. For the same molecule, the minimal effective dose in experiment [1] (setting [2]) and in experiment [1] (setting [3]) was 3 mg/kg each time.
`Nc1cccc(-c2csc(SCC(=O)NC[C@H]3CN(Cc4ccc(Cl)c(Cl)c4)CCO3)n2)c1` [Example 9, (2S)-[4-(3-aminophenyl)thiazol-2-ylthio]-N-{[4-(3,4-dichlorobenzyl)morpholin-2-yl]methyl}acetamide]: the IC50 at human eosinophils was determined as 12.7 nM.
Regarding `NC(=O)c1cc(-c2csc(SCC(=O)NC[C@H]3CN(Cc4ccc(Cl)c(Cl)c4)CCO3)n2)ccc1O` [Example 10, (2S)-[4-(3-carbamoyl-4-hydroxyphenyl)thiazol-2-ylthio]-N-{[4-(3,4-dichlorobenzyl)morpholin-2-yl]methyl}acetamide], the IC50 on human eosinophils was 2.4 nM.
For the molecule `O=C(CSc1nc(-c2ccncc2)cs1)NC[C@H]1CN(Cc2ccc(Cl)c(Cl)c2)CCO1` [Example 11, (2S)-N-{[4-(3,4-dichlorobenzyl)morpholin-2-yl]methyl}-[4-(pyridin-4-yl)thiazol-2-ylthio]acetamide], the IC50 on human eosinophils is 0.8 nM.
Still for that read-out and setting: next, `COc1ccc(-c2csc(SCC(=O)NC[C@H]3CN(Cc4ccc(Cl)c(Cl)c4)CCO3)n2)cc1OC` [Example 13, (2S)-N-{[4-(3,4-dichlorobenzyl)morpholin-2-yl]methyl}-[4-(3,4-dimethoxyphenyl)thiazol-2-ylthio]acetamide]: 0.4 nM.
Regarding `NC(=O)c1csc(SCC(=O)NC[C@H]2CN(Cc3ccc(Cl)c(Cl)c3)CCO2)n1` [Example 15, (2S)-(4-carbamoylthiazol-2-ylthio)-N-{[4-(3,4-dichlorobenzyl)morpholin-2-yl]methyl}acetamide], the values for the IC50 at human eosinophils and at CCR3 were 0.4 nM and 1.6 nM, respectively.
Turning to `NC(=O)CNC(=O)c1csc(SCC(=O)NC[C@H]2CN(Cc3ccc(Cl)c(Cl)c3)CCO2)n1` [Example 17, (2S)-{4-[(2-amino-2-oxoethyl)aminocarbonyl]thiazol-2-ylthio}-N-{[4-(3,4-dichlorobenzyl)morpholin-2-yl]methyl}acetamide], the results for the IC50 at human eosinophils and on CCR3 were 0.9 nM and 2.5 nM, respectively. For the same molecule, the minimal effective dose in experiment [1] (setting [2]) and in experiment [1] (setting [3]) was 3 mg/kg throughout.
On to `Cc1nc(-c2csc(SCC(=O)NC[C@H]3CN(Cc4ccc(Cl)c(Cl)c4)CCO3)n2)no1` [Example 23, (2S)-N-{[4-(3,4-dichlorobenzyl)morpholin-2-yl]methyl}-[4-(5-methyl-1,2,4-oxadiazol-3-yl)thiazol-2-ylthio]acetamide hydrochloride], for which the IC50 on human eosinophils stood at 1 nM; at CCR3 it was 0.8 nM.
Consider `Nc1ccc2c(c1)-c1nc(SCC(=O)NC[C@H]3CN(Cc4ccc(Cl)c(Cl)c4)CCO3)sc1C2` [Example 27, (2S)-(5-amino-8H-indeno[1,2-d]thiazol-2-ylthio)-N-{[4-(3,4-dichlorobenzyl)morpholin-2-yl]methyl}acetamide], for which the IC50 at human eosinophils was 2.3 nM.
For `O=C(CSc1ccc(C(=O)O)cc1)NC[C@H]1CN(Cc2ccc(Cl)c(Cl)c2)CCO1` [Example 37, (2S)-(4-carboxyphenylthio)-N-{[4-(3,4-dichlorobenzyl)morpholin-2-yl]methyl}acetamide], the IC50 was determined as 34.3 nM on human eosinophils and 4.9 nM on CCR3. For the same molecule, the minimal effective dose in experiment [1] (setting [2]) and in experiment [1] (setting [3]) was 3 mg/kg in each case.
